Test results published in paper PMC7571145, “Multistep Synthesis and In Vitro Anticancer Evaluation of 2-Pyrazolyl-Estradiol Derivatives, Pyrazolocoumarin-Estradiol Hybrids and Analogous Compounds” (Molecules, 2020).

Experiments:
DU145 cells = assay: MTT cytotoxicity assay on DU145 prostate cancer cells; format: cell-based; conditions: for primary growth inhibitory screen, cell viability, DU145: 2.5 µM, 72 h, mean±SD, untreated control about 100; for IC50: Homo sapiens, DU-145, 72 h, compounds 1-7 µM, mean ± SD, read-out: IC50 on DU145
Procedure: (§1) Cytotoxicity screens were performed to assess the in vitro anticancer activity of the synthesized A-ring-linked 2-pyrazoles of estradiol, the pyrazolocoumarin-estradiol hybrids, and their structurally simplified non-steroidal analogs on various cancerous cell lines such as MCF-7, PC-3, DU145, and HeLa and on non-cancerous MRC-5 fibroblasts. The 2-acetyl-phenol starting materials (4, 5, and 15) were also included for comparison. All compounds were applied in 2.5 µM concentration for 72 h. The obtained cell viability data were used to construct a heat map (Figure 2) in order to select compounds that exert cancer cell line-specific cytotoxicity. […] Furthermore, some compounds discriminated only DU145 cells and could eliminate these type of prostate cancer cells.
(§2) To understand structure-function relationships, we also included the structural analogs of the selected compounds, namely 7a (C-17 acetate of 8a), 8c (C-17 OH counterpart of 7c), and 9a (steroidal pair of 19a) into subsequent analyses. […] For this, compounds were applied on MCF-7, PC-3, DU145, and HeLa and on non-cancerous MRC-5 fibroblasts in various concentrations for 72 h or were treated with cisplatin at different concentrations. On the viability data, dose–response curves were fitted (Figure S1) and IC50 values were calculated accordingly (Table 3). In agreement with the primary cytotoxicity screen (Table S1), the obtained IC50 concentrations clearly indicated which compound was selectively effective on one or more cancer cell lines. […] Typically, acetylated steroidal pyrazoles were less favorable than deacetylated counterparts due to reduced cancer cell selectivity (7c, 10a).
(§3) To evaluate the in vitro pharmacological effects of the synthesized molecules, each compound was first dissolved in cell culture grade DMSO (Sigma) to a final concentration of 10 mM. Using MTT colorimetric assay, the cytotoxicity of these compounds was evaluated on cancerous (MCF-7, HeLa, DU145, PC-3) and non-cancerous (MRC-5) cell lines. Briefly, 5000 cells/well of each cell line were seeded in 96-well plates and were left to grow overnight in a 5% CO2 atmosphere at 37 °C. On the next day, cells were treated with each derivative separately, in case of the primary screen, or only with the selected compounds upon IC50 determination. Cells were incubated with the test compounds for 72 h in a 5% CO2 atmosphere at 37 °C. End point was measured by incubating cells for 1 h with 0.5 mg/mL of MTT reagent (Serva) dissolved in serum free culture medium. The formazan crystals formed by metabolically active cells were later dissolved in DMSO. Optical density of the obtained solutions was measured at 570 nm using a Synergy HTX plate reader. […] The analysis and conclusions were made based on three independent experiments. Normalized data were analyzed and the heat map was constructed using GraphPad Prism 7 software.

MCF-7 cells = assay: MTT cytotoxicity assay on MCF-7 cells; format: cell-based; conditions: for primary growth inhibitory screen, cell viability, MCF-7: 2.5 µM, 72 h, mean±SD, untreated control about 100; for IC50: Homo sapiens, MCF7, 72 h, compounds 1-7 µM, mean ± SD, read-out: IC50 on MCF-7
Procedure: as §1, §2, §3

PC-3 cells = assay: MTT cytotoxicity assay on PC-3 prostate cancer cells; format: cell-based; conditions: for primary growth inhibitory screen, cell viability, PC-3: 2.5 µM, 72 h, mean±SD, untreated control about 100; for IC50: Homo sapiens, PC-3, 72 h, compounds 1-7 µM, mean ± SD, read-out: IC50 on PC-3
Procedure: as §1, §2, §3

HeLa cells = assay: MTT cytotoxicity assay on HeLa cells; format: cell-based; conditions: 72 h; for primary growth inhibitory screen, cell viability, HeLa: 2.5 µM, mean±SD, untreated control about 100; for IC50: Homo sapiens, HeLa, compounds 1-7 µM, mean ± SD, read-out: IC50 on HeLa
Procedure: as §1, §2, §3

MRC-5 fibroblasts = assay: MTT cytotoxicity assay on non-cancerous MRC-5 fibroblasts; format: cell-based; conditions: 72 h; for primary growth inhibitory screen, cell viability, MRC-5 / effect on non-cancerous fibroblasts: 2.5 µM; for primary growth inhibitory screen, cell viability, MRC-5 / IC50: MTT; for primary growth inhibitory screen, cell viability, MRC-5: mean±SD, untreated control about 100; for effect on non-cancerous fibroblasts: based on the heat map; for IC50: Homo sapiens, MRC5, compounds 1-7 µM, mean ± SD, read-out: IC50 on MRC-5
Procedure: as §1, §2, §3

Row | Compound | primary growth inhibitory screen, cell viability, DU145 (DU145 cells) | primary growth inhibitory screen, cell viability, MCF-7 (MCF-7 cells) | primary growth inhibitory screen, cell viability, PC-3 (PC-3 cells) | primary growth inhibitory screen, cell viability, HeLa (HeLa cells) | primary growth inhibitory screen, cell viability, MRC-5 (MRC-5 fibroblasts) | melting point | IC50 (DU145 cells) | IC50 (MCF-7 cells) | IC50 (PC-3 cells) | IC50 (HeLa cells) | effect on non-cancerous fibroblasts (MRC-5 fibroblasts) | IC50 (MRC-5 fibroblasts)
1 | CC(=O)O[C@H]1CC[C@H]2[C@@H]3CCc4cc5oc(=O)c6cn(-c7ccc(Cl)cc7)nc6c5cc4[C@H]3CC[C@]12C [Compound 9c] | ≥ 100±0.9 | 91.1±3.1 | 94.1±4.2 | 75.7±1.7 | 89.5±8.7 | 283 to 285 °C |  |  |  |  |  | 
2 | O=c1oc2cc3c(cc2c2nn(-c4ccc(Cl)cc4)cc12)CCCC3 [Compound 19c, 2-(4′-Chlorophenyl)-7,8,9,10-tetrahydrobenzo[6,7]chromeno[4,3-c]pyrazol-4(2H)-one] | ≥ 100.6±10.8 | ≥ 100±3.8 | 79.1±7.8 | ≥ 100±8.3 | ≥ 100±2.5 | 291 to 293 °C |  |  |  |  |  | 
3 | CC(=O)O[C@H]1CC[C@H]2[C@@H]3CCc4cc(O)c(C(C)=O)cc4[C@H]3CC[C@]12C [Compound 4, 2-Acetyl-estra-1,3,5(10)-triene-3,17β-diol-17-acetate] | 94.2±8.6 | 92.7±2.2 | 88.5±6.5 | 90.0±4.3 | ≥ 100±6.6 | 200 to 202 °C |  |  |  |  |  | 
4 | O=Cc1cn(-c2ccc(Cl)cc2)nc1-c1cc2c(cc1O)CCCC2 [Compound 17c, 1′-(4″-Chlorophenyl)-3′-(3-hydroxy-5,6,7,8-tetrahydronaphthalen-2-yl)-1′H-pyrazole-4″-carbaldehyde] | 80.3±10.8 | 77.5±4.6 | 61.9±2.8 | ≥ 100±4.0 | ≥ 100±4.0 | 182 to 184 °C | > 7 µM | 4.12 ± 1 µM | 4.39 ± 1 µM | 6.23 ± 1 µM | no or very mild effect | 5.72 ± 1.1 µM
5 | CC(=O)O[C@H]1CC[C@H]2[C@@H]3CCc4cc5oc(=O)c6cn(-c7ccc(C)cc7)nc6c5cc4[C@H]3CC[C@]12C [Compound 9b] | ≥ 100±4.5 | ≥ 100±0.8 | 86.2±2.4 | 68.0±0.4 | ≥ 100±4.2 | 264 to 266 °C |  |  |  |  |  | 
6 | Cc1ccc(-n2cc3c(=O)oc4cc5c(cc4c3n2)CCCC5)cc1 [Compound 19b, 2-(4′-Tolyl)-7,8,9,10-tetrahydrobenzo[6,7]chromeno[4,3-c]pyrazol-4(2H)-one] | 100.6±6.3 | ≥ 100±4.8 | 84.1±5.2 | ≥ 100±2.4 | ≥ 100±0 | 224 to 226 °C |  |  |  |  |  | 
7 | C[C@]12CC[C@@H]3c4cc(-c5nn(-c6ccc(Cl)cc6)cc5CO)c(O)cc4CC[C@H]3[C@@H]1CC[C@@H]2O [Compound 11c] | 127.1±4.9 | ≥ 100±0.7 | 87.1±3.8 | 77.9±1.5 | ≥ 100±8.4 | 240 to 242 °C |  |  |  |  |  | 
8 | Cc1ccc(-n2cc(C=O)c(-c3cc4c(cc3O)CC[C@@H]3[C@@H]4CC[C@]4(C)[C@@H](O)CC[C@@H]34)n2)cc1 [Compound 8b, 2-(4′-Formyl-1′-(4″-tolyl)-1′H-pyrazol-3′-yl)-estra-1,3,5(10)-trien-3,17β-diol] | ≥ 100±10.2 | ≥ 100±8.2 | 67.8±3.8 | 92.2±8.5 | ≥ 100±2.4 | > 190 °C (dec.) |  |  |  |  |  | 
9 | CC(=O)O[C@H]1CC[C@H]2[C@@H]3CCc4cc(O)c(-c5nn(-c6ccc(Cl)cc6)cc5C=O)cc4[C@H]3CC[C@]12C [Compound 7c, 2-(1′-(4″-Chlorophenyl)-4′-formyl-1′H-pyrazol-3′-yl)-estra-1,3,5(10)-triene-3,17β-diol-17-acetate] | 70.4±3.6 | 57.4±10.6 | 36.0±4.5 | 94.1±1.9 | 78.9±4.3 | 268 to 270 °C | 3.37 ± 1 µM | 1.99 ± 1.1 µM | 2.14 ± 1.1 µM | 5.32 ± 1.1 µM | no or very mild effect | 4.76 ± 1.1 µM
10 | CC(=O)O[C@H]1CC[C@H]2[C@@H]3CCc4cc(O)c(-c5nn(-c6ccc(C)cc6)cc5CO)cc4[C@H]3CC[C@]12C [Compound 10b] | ≥ 100±6.8 | 87.6±0.7 | 88.0±5.6 | 68.3±2.2 | 96.9±3.8 | 254 to 256 °C |  |  |  |  |  | 
11 | CC(=O)c1cc2c(cc1O)CCCC2 [Compound 15, 3-Acetyl-5,6,7,8-tetrahydro-2-naphthol] | ≥ 100±6.7 | ≥ 100±1.9 | ≥ 100±2.2 | 53.8±8.3 | ≥ 100±3.7 | 70 to 72 °C | > 7 µM | > 7 µM | > 7 µM | 3.6 ± 1.2 µM | no or very mild effect | > 7 µM
12 | O=Cc1cn(-c2ccccc2)nc1-c1cc2c(cc1O)CCCC2 [Compound 17a, 3′-(3-Hydroxy-5,6,7,8-tetrahydronaphthalen-2-yl)-1′-phenyl-1′H-pyrazole-4′-carbaldehyde] | ≥ 100±6.4 | ≥ 100±2.3 | 71.0±20.9 | 53.7±3.3 | ≥ 100±7.3 | 137 to 138 °C | 5.62 ± 1 µM | 5.17 ± 1 µM | 4.3 ± 1 µM | 2.2 ± 1.1 µM | no or very mild effect | 6.26 ± 1.1 µM
13 | CC(=O)O[C@H]1CC[C@H]2[C@@H]3CCc4cc(O)c(-c5nn(-c6ccccc6)cc5CO)cc4[C@H]3CC[C@]12C [Compound 10a] | ≥ 100±15.8 | 73.5±7.2 | 63.6±17.8 | 83.2±2.0 | 93.6±1.7 | 257 to 259 °C |  |  |  |  |  | 
14 | C[C@]12CC[C@@H]3c4cc(-c5nn(-c6ccc(Cl)cc6)cc5C=O)c(O)cc4CC[C@H]3[C@@H]1CC[C@@H]2O [Compound 8c] | ≥ 100±5.0 | ≥ 100±5.3 | 94.8±4.0 | 83.1±6.2 | ≥ 100±3.3 | > 190 °C (dec.) | 4.82 ± 1 µM | 5.34 ± 1 µM | 5.08 ± 1 µM | 3.39 ± 1 µM |  | 5.53 ± 1 µM
